Source: patent publication US10905738B2, “Synthetic peptides, prodrugs, pharmaceutical compositions and uses” (Biozeus Desenvolvimento De Produtos Biofarmacêuticos, priority 2018, dated 2021)

Key:
cavernosal strips = assay: relaxation induced by electric stimuli in cavernosal strips pre-contracted with phenylephrine ex vivo; design: species or system rats of Sprague Dawley (SD) lineage; conditions: peptides 10^−10 M; 10^−8 M; 10^−6 M; FIG. 3
Procedure: The relaxing potential of the peptides of the present invention on the smooth muscles of cavernous strips was evaluated ex vivo using tissue isolated from rats, a model that is largely used to test drug candidates for the treatment of ED (ITALIANO, G., CALABRÒ, A., PAGANO, F. A simplified in vitro preparation of the corpus cavernosum as a tool for investigating erectile pharmacology in the rat. Pharmacological research, 30(4): 325-334. 1994; GEMALMAZ, H., WALDECK, K., CHAPMAN, T. N., TUTTLE, J. B., STEERS, W. D., ANDERSSON, K E. In vivo and in vitro investigation of the effects of sildenafil on rat cavernous smooth muscle. The Journal of Urology, 165(3): 1010-1014.2001).
Male rats of Sprague Dawley (SD) lineage were sacrificed by guillotine; the penises were removed surgically and placed on a Petri dish containing Krebs—bicarbonate solution (NaCl 118.1 mM; KCl 4.7 mM; KH2PO4 1.0 mM; MgSO4 1.0 mM; NaHCO3 25.0 mM; CaCl2) 2.5 mM and Glucose 11.1 mM). The corpus cavernosum were dissected by removing the glans, urethra, spongeous body and dorsal vein, and then separated by cutting the fibrous septum between them. Cavernosal strips measuring 2×2×7 mm were mounted separately in a bath for isolated organs containing bicarbonate solution-Krebs (pH 7.4) at 37° C., aerated with 95% of O02 and 5% of CO2. The tissue was connected to a tension transducer and the changes in tension were continuously registered. The cavernosal strips were contracted with phenylephrine (10^−5 M) and subsequently relaxed by electrical stimulation at different frequencies (1 to 32 Hz). […] Differences in the percentage of relaxation between treatment and control were evaluated with regard to statistical significance by means of two-way variance analysis (Two-Way ANOVA) followed by Bonferroni post-test. For the comparison between the treatments and control in light of the stimulation in a single frequency, the results were evaluated by one-way analysis variance (One-Way ANOVA) followed by Bonferroni post-test. […]

[1] = test system: smooth muscle of tracheal rings; assay: spasmodic contraction of tracheal rings ex vivo (histamine-induced); design: species or system Dunkin-Hartley guinea pigs; conditions: mean±SEM
Procedure: The magnitude of the relaxing effect of the peptides was evaluated by means of a model of spasmodic contraction of tracheal rings ex vivo, largely employed to test new bronchodilating agents (see CULLUM, V. A., FARMER, J. B., JACK, D., LEVY, G. P. Salbutamol: a new, selective β-adrenoceptive receptor stimulant. British journal of pharmacology, 35(1): 141-151. 1969; KAO, C. H., CHU, Y. H., WANG, H. W. Effects of lidocaine on rat's isolated tracheal smooth muscle. European Archives of Oto-Rhino-Laryngology, 267(5): 817-820. 2010; SORIANO-URSÚA, M. A., VALENCIA-HERNÁNDEZ, I., ARELLANO-MENDOZA, M. G., CORREA-BASURTO, J., TRUJILLO-FERRARA, J. G. Synthesis, pharmacological and in silico evaluation of 1-(4-dihydroxy-3, 5-dioxa-4-borabycyclo [4.4.0] deca-7,9,11-trien-9-yl)-2-(tert-butylamine) ethanol, a compound designed to act as a β2 adrenoceptor agonist. European journal of medicinal chemistry, 44(7): 2840-2846. 2009).
For each test, Dunkin-Hartley guinea pigs (400-500 g) were euthanized in a CO2 atmosphere; subsequently, the trachea was exposed, removed and sectioned in segments of 1 to 3 cartilaginous tracheal rings. Each segment was transferred to an individual organ bath system containing Krebs nutritive solution (NaCl 118 mM; KCl […]; CaCl2) 2.5 mM; MgSO4 1.2 mM; KH2PO4 1.2 mM; NaHCO324 mM; glucose 11 mM) at 37° C., under constant aeration with a carbogenic mixture (95% of O2 and 5% of CO2). In each system, a stem fixed to the base of the container and another connected to an isometric transducer (GRASS FT-03) made up the support of the fragments. A data digitizing system connected to the isometric transducer allowed the recording of tension variations produced by the contraction of the tracheal rings (PowerLab™ 16/30, LabChart, version 8.1, AD Instruments, Australia). The basal tension was adjusted to 1 g, and subsequently, the contractility of the fragments was evaluated by a stimulus with carbachol (2.5 μM). After 1 h at rest, the basal tension was recovered and the tissues were subjected to contraction induced by histamine (50 μM) followed by exposure to increasing concentrations of the treatments (0.01 to 10 μM; n=8) or the comparator PnTx(19).
Table 1 lists the mean±SEM of the potency values, shown as the negative logarithm of the concentration that reduced the voltage to 50% of the maximum Histamine-induced contraction (pEC50), and efficacy (Emax), calculated from at least 8 independent tests using the sigmoid nonlinear regression equation of the software Graph Prism 5.0 (GraphPad Software, La Jolla, Ca, USA).

## RQYFWIAWYKLANSK [SEQ ID NO: 5, Ac-Arg-Gln-Tyr-Phe-Trp-Ile-Ala-Trp-Tyr-Lys-Leu-Ala-Asn-Ser-Lys-NH2]
Cavernosal strips
  enhancing effect on relaxation induced by electric stimuli in strips of cavernous body contracted by phenylephrine: enhancing effect
[1]; relaxation of tracheal rings contracted by histamine (50 μM)
  Effectiveness (Emax) (%): Inactive
[1]; tracheal rings contracted by histamine (50 μM), peptides 0.01 to 10 μM
  Potency (pEC50) Molar: Inactive
